These results are taken from ChEMBL document CHEMBL5104232, “Pyrazolines as potential anti-Alzheimer's agents: DFT, molecular docking, enzyme inhibition and pharmacokinetic studies” (RSC Med Chem, 2022).

One data set concerns the target Acetylcholinesterase (Homo sapiens, UniProt P22303).
Data set [1] can be described thus: Apparent permeability of compound across gastrointestinal tract mimic in PBS buffer incubated for 5 hrs by PAMPA assay based HPLC analysis. In kind it is ADME. A general note: The PAMPA barrier holds no transporters, so it reflects passive diffusion.
Data set [2] can be described thus: Apparent permeability of compound across gastrointestinal tract mimic in PBS buffer as membrane retention incubated for 5 hrs by PAMPA assay based HPLC analysis. The format is ADME.

Acetylcholinesterase, sequence (P22303 whole entry, the tested form may be a part): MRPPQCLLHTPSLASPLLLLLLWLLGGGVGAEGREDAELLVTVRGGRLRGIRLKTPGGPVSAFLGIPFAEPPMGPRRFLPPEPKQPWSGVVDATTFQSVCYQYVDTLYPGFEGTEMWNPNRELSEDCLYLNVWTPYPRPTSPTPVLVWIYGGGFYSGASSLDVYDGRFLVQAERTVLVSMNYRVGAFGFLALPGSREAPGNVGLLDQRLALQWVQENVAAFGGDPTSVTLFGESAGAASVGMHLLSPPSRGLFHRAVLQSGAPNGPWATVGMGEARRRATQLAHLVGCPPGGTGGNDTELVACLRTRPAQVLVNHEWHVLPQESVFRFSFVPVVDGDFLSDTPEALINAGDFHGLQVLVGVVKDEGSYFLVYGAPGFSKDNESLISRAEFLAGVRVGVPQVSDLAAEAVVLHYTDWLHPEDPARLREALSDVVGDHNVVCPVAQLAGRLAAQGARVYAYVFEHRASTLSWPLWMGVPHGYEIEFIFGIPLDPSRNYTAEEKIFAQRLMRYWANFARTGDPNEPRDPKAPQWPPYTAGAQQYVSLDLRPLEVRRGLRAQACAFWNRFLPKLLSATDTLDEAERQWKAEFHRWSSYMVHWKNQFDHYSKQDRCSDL
Description for Acetylcholinesterase: Inhibition of human acetylcholinesterase using acetylthiocholine iodide as substrate incubated for 15 mins by Ellman's method

Consider `COc1ccc(C2CC(c3ccc(-c4ccccc4)cc3)=NN2C(C)=O)cc1OC` (centres undefined), for which, at Acetylcholinesterase, the IC50 (usually the concentration that inhibits the measured activity by half) was 1430 µM. Besides, the Papp (usually a coefficient for how fast a substance crosses the barrier) at 5 h in data set [1] came to 9.02 ×10⁻⁶ cm/s. For the same molecule, in data set [2], the Activity was found to be 9.2%.
In the same order, the values of `CC(=O)N1N=C(c2ccc(-c3ccccc3)cc2)CC1c1ccccc1` (centres undefined) are 1330 µM, 9.15 ×10⁻⁶ cm/s and 30.7%.
In the same order, the values of `CC(=O)N1N=C(c2ccc(-c3ccccc3)cc2)CC1c1ccc(C(=O)O)cc1` (centres undefined) are 1540 µM, 2.13 ×10⁻⁶ cm/s and 15%.
In the case of `CC(=O)N1N=C(c2ccc(-c3ccccc3)cc2)CC1c1cccc([N+](=O)[O-])c1` (centres undefined), half-maximal inhibition at Acetylcholinesterase (IC50) was put at 1030 µM. In addition, the Papp at 5 h in data set [1] is 9.42 ×10⁻⁶ cm/s. For the same molecule, the Activity in data set [2] was determined as 27.7%.
`CC(=O)N1N=C(c2ccc(Br)cc2)CC1c1ccc(-c2ccccc2)cc1` (centres undefined): inhibition against Acetylcholinesterase was half-maximal at 0.903 µM (IC50). Further, the apparent permeability (Papp) at 5 h in data set [1] amounted to 4.9 ×10⁻⁶ cm/s. Moreover, in data set [2], the Activity amounted to 49%.
For `CC(=O)N1N=C(c2ccc(-c3ccccc3)cc2)CC1c1ccccc1[N+](=O)[O-]` (centres undefined) the same measures were 0.64 µM, 6.9 ×10⁻⁶ cm/s and 47.6%.
Regarding `CC(=O)N1N=C(c2ccc(-c3ccccc3)cc2)CC1c1ccc([N+](=O)[O-])cc1` (centres undefined), the IC50 against Acetylcholinesterase was 1560 µM. In addition, the Papp at 5 h in data set [1] is 7.85 ×10⁻⁶ cm/s. In data set [2], the Activity stood at 32.6%.
In the same order, the values of `COc1ccc(C2=NN(C(C)=O)C(c3ccc(-c4ccccc4)cc3)C2)c(OC)c1` (centres undefined) are 1130 µM, 1 ×10⁻⁶ cm/s and 18.4%.
The molecule `COc1cc(C2=NN(C(C)=O)C(c3ccc(-c4ccccc4)cc3)C2)cc(OC)c1OC` (centres undefined) gave an IC50 on Acetylcholinesterase of 1950 µM. The apparent permeability (Papp) at 5 h in data set [1] came to 7.89 ×10⁻⁶ cm/s. Further, in data set [2], the Activity came out at 9.5%.
In the same order, the values of `CC(=O)N1N=C(c2ccc3c(c2)OCO3)CC1c1ccc(-c2ccccc2)cc1` (centres undefined) are 0.913 µM, 8.44 ×10⁻⁶ cm/s and 17%.
In the same order, the values of `CC(=O)N1N=C(c2cccc3ccccc23)CC1c1ccc(-c2ccccc2)cc1` (centres undefined) are 1010 µM, 5.47 ×10⁻⁶ cm/s and 35.8%.
For `CC(=O)N1N=C(c2ccc3ccccc3c2)CC1c1ccc(-c2ccccc2)cc1` (centres undefined) the same measures were 0.068 µM, 4.43 ×10⁻⁶ cm/s and 56.9%.
Regarding `CC(=O)N1N=C(c2ccc(-c3ccccc3)cc2)CC1c1ccc2c(c1)OCO2` (centres undefined), at Acetylcholinesterase, the IC50 was determined as 0.988 µM. Also, the apparent permeability (Papp) at 5 h in data set [1] was determined as 8.75 ×10⁻⁶ cm/s. For the same molecule, the Activity in data set [2] came out at 33.7%.
For `CC(=O)N1N=C(c2ccc(C)cc2)CC1c1ccc(-c2ccccc2)cc1` (centres undefined) the same measures were 0.845 µM, 4.27 ×10⁻⁶ cm/s and 44.3%.
For `CC(=O)N1N=C(c2ccccc2[N+](=O)[O-])CC1c1ccc(-c2ccccc2)cc1` (centres undefined), on Acetylcholinesterase, the midpoint of inhibition, the IC50, lay at 0.052 µM. The Papp at 5 h in data set [1] worked out at 1.22 ×10⁻⁶ cm/s. In data set [2], the Activity was 6.6%.
In the same order, the values of `COc1ccc(OC)c(C2=NN(C(C)=O)C(c3ccc(-c4ccccc4)cc3)C2)c1` (centres undefined) are 1700 µM, 6.87 ×10⁻⁶ cm/s and 36.2%.
For `CC(=O)N1N=C(c2ccc(-c3ccccc3)cc2)CC1c1ccc2ccccc2c1` (centres undefined) the same measures were 0.799 µM, 3.36 ×10⁻⁶ cm/s and 59.7%.
The molecule `COc1ccc(OC)c(C2CC(c3ccc(-c4ccccc4)cc3)=NN2C(C)=O)c1` (centres undefined) gave an IC50 at Acetylcholinesterase of 1420 µM. Further, the Papp at 5 h in data set [1] amounted to 6.94 ×10⁻⁶ cm/s. Further, in data set [2], the Activity is 38.3%.
